Measurements taken from PMC5448288 (Journal of the American Chemical Society, 2009).
Values joined by “and” are separate entries in the source; they are usually repeats but may differ in a detail not shown here. Equal entries are not always repeated. Each block holds one compound with its values, some of them ahead of it.

Molecular target: human indoleamine 2,3-dioxygenase (hIDO) (Homo sapiens, UniProt P14902)
Assay: steady-state dioxygenase activity of hIDO
[1] = compound as substrate, no IDE, pH 7.4, air-saturated, kcat = Vmax/[hIDO]
[2] = L-Trp reaction in the presence of 2.5 mM IDE, pH 7.4
[3] = L-Trp reaction in the presence of 5.1 mM IDE, pH 7.4

human indoleamine 2,3-dioxygenase (hIDO), sequence (P14902 whole entry): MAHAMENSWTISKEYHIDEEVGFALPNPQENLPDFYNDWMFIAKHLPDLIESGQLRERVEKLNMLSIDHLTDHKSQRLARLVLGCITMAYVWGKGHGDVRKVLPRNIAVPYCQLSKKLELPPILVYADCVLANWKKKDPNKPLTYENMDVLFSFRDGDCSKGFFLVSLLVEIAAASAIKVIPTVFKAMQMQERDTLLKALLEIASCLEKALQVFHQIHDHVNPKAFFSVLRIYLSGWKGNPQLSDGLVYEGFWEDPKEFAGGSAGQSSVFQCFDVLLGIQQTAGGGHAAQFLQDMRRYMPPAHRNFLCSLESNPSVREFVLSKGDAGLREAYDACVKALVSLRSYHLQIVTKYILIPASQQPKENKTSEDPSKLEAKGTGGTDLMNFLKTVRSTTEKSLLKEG

substrate inhibition (activity as a function of substrate concentration, Figure 1b): No substrate inhibition was observed
Km (compound as substrate): 2600 µM
Km, fold larger as compared to the L-Trp reaction (compound as substrate): 170 fold
kcat, fold faster as compared to the L-Trp reaction (compound as substrate): 2 fold
Km (compound as substrate, no IDE, pH 7.4, air-saturated): 2600 µM
kcat [1]: 5.9 s⁻¹ and 5.9 ± 0.3 s⁻¹
SMILES: N[C@H](Cc1c[nH]c2ccccc12)C(=O)O [D-Trp]

Ksi [2]: 0.48 ± 0.05 mM
kcat [2]: 3.2 ± 0.4 s⁻¹
Ksi [3]: 1.0 ± 0.1 mM
kcat [3]: 3.5 ± 0.6 s⁻¹
SMILES: OCCc1c[nH]c2ccccc12 [IDE, 3-Indole Ethanol]

kcat [1]: 3.1 ± 0.2 s⁻¹
Ksi (self-inhibition / substrate-inhibition constant) (compound as substrate, no IDE, pH 7.4, fit with eq 1): 0.17 mM and 0.17 ± 0.2 mM
SMILES: N[C@@H](Cc1c[nH]c2ccccc12)C(=O)O [L-Trp, L-tryptophan]

mode of inhibition (Lineweaver–Burk plot of L-Trp reaction): uncompetitive
SMILES: CO[C@@]12[C@H](COC(N)=O)C3=C(C(=O)C(C)=C(N)C3=O)N1C[C@@H]1N[C@@H]12 [MtoC, Mitomycin C]
